Consider six molecules from ChEMBL document CHEMBL6078663, “Cyclopeptide Avellanins D-O with Antimalarial Activity from the Mariana Trench Anemone-Derived Hamigera ingelheimensis MSC5” (J Nat Prod, 2024).

For the experiment, the system named is Plasmodium falciparum. Briefly: Antimalarial activity against synchronous ring-stage Plasmodium falciparum 3D7 infected in erythrocytes incubated for 48 hrs by fluorescence based method. The class given is functional, organism-based. Particulars: 3D7, Erythrocyte.

As a reminder, the IC50 is the concentration needed to halve the response being measured. Read a low IC50 as greater potency in that assay. The molecule `C[C@H]1NC(=O)[C@@H](Cc2ccccc2)N(C)C(=O)[C@@H]2CCCN2C(=O)c2ccccc2NC(=O)[C@H](Cc2ccc(O)cc2)NC1=O` returned an IC50 of 10 µM.

Molecule `CN1C(=O)[C@@H]2CCCN2C(=O)c2ccccc2NC(=O)[C@H](Cc2ccccc2)NC(=O)CNC(=O)[C@H]1Cc1ccccc1` came in with an IC50 of 3 µM.

`C[C@H]1NC(=O)[C@@H](Cc2ccccc2)N(C)C(=O)[C@@H]2CCCN2C(=O)c2ccccc2NC(=O)[C@H](CCO)NC1=O`: the half-inhibitory concentration (IC50) was greater than 50 µM.

Molecule `CN1C(=O)[C@@H]2CCCN2C(=O)c2ccccc2NC(=O)[C@H](Cc2ccccc2)NC(=O)[C@@H](CO)NC(=O)[C@H]1Cc1ccccc1` came in with an IC50 of 16 µM.

Take `C[C@H]1NC(=O)[C@@H](Cc2ccccc2)N(C)C(=O)[C@@H]2CCCN2C(=O)c2ccccc2NC(=O)[C@H](Cc2ccc(O)c(Cl)c2)NC1=O`: 0.19 µM corresponded to half-maximal inhibition (IC50).

`C[C@H]1NC(=O)[C@@H](Cc2ccccc2)N(C)C(=O)[C@@H]2CCCN2C(=O)c2ccccc2NC(=O)[C@H](Cc2ccccc2)NC1=O` displayed an IC50 of 9.4 µM.
